Assay results from patent US12029682B2, “Spray ejector mechanisms and devices providing charge isolation and controllable droplet charge, and low dosage volume ophthalmic administration” (EYENOVIA, INC., priority 2012, dated 2024).

Test system: glaucomatous beagles
Experiment: Pupil diameter (PD), Jameson Caliper, in glaucomatous beagles
Type: in vivo, beagle dog
Conditions: for PD: spray ejector device, one dog
Method: (§1) One glaucomatous beagle dog (female, aged 3 years) from the University of Florida MacKay Colony of Glaucomatous Beagles was chosen for this study. The animal was rested a minimum of one week before starting the study. Prior to the commencement of the study, the animal was assigned one eye to receive 1.5 μl of 0.005% latanoprost and the contralateral eye to remain untreated as a control. The basic measurement protocol was followed at all times and performed by the same operator. PD was measured via Jameson Caliper (mm horizontally). IOP was measured using a TonoVet instrument with clean probe (iCare). IOP and PD were measured at time 0, 1, 2, 4, 7 and 18 hours daily for two days. Immediately after the time 0 measurement, the animal received 1.5 μl of 0.005% latanoprost in its assigned eye with a spray device. The contralateral eye was left untreated. The spray device was checked for accuracy before and after every use, and required a 10% delivered dose accuracy in pretreatment. Standard measurements continued throughout each day at time 1, 2, 4, 7 and 18 hours. Possible endpoints included, but were not limited to, excessive ocular irritation, ocular damage, and other illness or injury. No statistical crossover was utilized for this study.
as §1, with “study.” for “study. The animal was rested a minimum of one week before starting the study.”, “receive 3.0” for “receive 1.5”, “0 measurements,” for “0 measurement,”, “animal was administered 3.0” for “animal received 1.5”, “eye using” for “eye with”, “spray ejector” for “spray”
All animals were rested for a minimum of one week before starting the trials. IOP and pupil diameter (PD) were measured 5 times (at 0, 1, 2, 4, and 7 hours) daily for four days (study days 1-4) to establish initial baseline levels. The basic measurement protocol was followed at all times and performed by the same operator. PD was measured via Jameson Caliper (mm horizontally). IOP was measured with a TonoVet instrument with clean probe (iCare). After three rest days, one eye was randomly assigned to receive 9 μl of 0.005% latanoprost delivered via a spray ejector device, and the contralateral eye was administered traditional latanoprost from a traditional eyedropper container (26-30 μl).
On study days 5-9, IOP and PD measurements were taken at approximately 0900 h (time 0). Immediately after time 0 measurements, each animal received a once-daily dose of 9 μl of generic 0.005% latanoprost in its assigned eye via the spray ejector device. […]

For `CC(C)OC(=O)CCC/C=C\C[C@@H]1[C@@H](CC[C@@H](O)CCc2ccccc2)[C@H](O)C[C@@H]1O` [latanoprost], the PD (1.5 μl of 0.005%, by hour 1 through hour 7) was 0 mm, the PD (3.0 μl of 0.005%, by hour 1 throughout hour 7) was 0 mm and the “time to return to normal PD” value (one drop of 0.005% by eyedropper) was ≤ 24 h. The “time at which the iris reached pinpoint status” value (traditional treatment, one drop by eyedropper, remained for the seven hours of monitoring) was 1 h and the “time at which the iris reached pinpoint status (maximum miosis)” value (two 6 μl doses via ejector device, remained for the seven hours of monitoring) was 1 h.
